Laboratory results from ChEMBL document CHEMBL1201862, “PubChem BioAssay data set” (2004).
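Assay format: 96-well plates, 48-hour exposure. The concentration for 50% growth inhibition is given as GI50.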 The source made the active and inactive calls. No stated cut-off is given here; in the data, active = GI50 up to about 1.1 µM and inactive = higher.

Assays:
Test in all cases: DTP human tumour cell line panel, 48 h
[1] = tested on: NCI-H23
[2] = tested on: ACHN
[3] = tested on: T47D
[4] = tested on: NCI-H522
[5] = tested on: NCI-H460
[6] = tested on: MOLT-4
[7] = tested on: RPMI-8226
[8] = tested on: SF-539
[9] = tested on: OVCAR-3
[10] = tested on: DU-145
[11] = tested on: SNB-19
[12] = tested on: IGROV-1
[13] = tested on: COLO 205
[14] = tested on: KM12
[15] = tested on: M14
[16] = tested on: NCI/ADR-RES
[17] = tested on: SK-MEL-28
[18] = tested on: Malme-3M
[19] = tested on: OVCAR-8
[20] = tested on: HOP-92

Compound | GI50 [1] | GI50 [2] | GI50 [3] | GI50 [4] | GI50 [5] | GI50 [6] | GI50 [7] | GI50 [8] | GI50 [9] | GI50 [10] | GI50 [11] | GI50 [12] | GI50 [13] | GI50 [14] | GI50 [15] | GI50 [16] | GI50 [17] | GI50 [18] | GI50 [19] | GI50 [20]
COc1cc2c(=O)cnoc2cc1O | > 100 µM (inactive) | > 100 µM (inactive) | > 100 µM (inactive) | > 100 µM (inactive) | > 100 µM (inactive) | > 100 µM (inactive) | > 100 µM (inactive) | > 100 µM (inactive) | > 100 µM (inactive) | > 100 µM (inactive) | > 100 µM (inactive) | > 100 µM (inactive) | > 100 µM (inactive) | > 100 µM (inactive) | > 100 µM (inactive) | > 100 µM (inactive) | > 100 µM (inactive) | > 100 µM (inactive) | > 100 µM (inactive) | > 100 µM (inactive)
COC(=O)[C@]1(C)CCCC2(C)C3=C(CCC21)CC1(CC3)SCCS1 (stereo partly specified) | > 10 µM (inactive) | > 10 µM (inactive) | > 10 µM (inactive) | > 10 µM (inactive) |  | > 10 µM (inactive) | > 10 µM (inactive) | > 10 µM (inactive) | > 10 µM (inactive) | > 10 µM (inactive) | > 10 µM (inactive) | > 10 µM (inactive) | > 10 µM (inactive) | > 10 µM (inactive) | > 10 µM (inactive) | > 10 µM (inactive) | > 10 µM (inactive) | > 10 µM (inactive) | > 10 µM (inactive) | > 10 µM (inactive)
CC(=O)O[C@H]1C(=O)[C@@]2(C)[C@H]([C@H](OC(=O)c3ccccc3)[C@]3(O)C[C@H](OC(=O)[C@H](OC(=O)OCCC(O)CO)[C@@H](NC(=O)c4ccccc4)c4ccccc4)C(C)=C1C3(C)C)[C@]1(OC(C)=O)CO[C@@H]1C[C@@H]2O (stereo partly specified) | < 0.01 µM (active) | 1.09 µM (active) | < 0.01 µM (active) | < 0.01 µM (active) | < 0.01 µM (active) | < 0.0109 µM (active) | < 0.01 µM (active) | < 0.01 µM (active) | < 0.01 µM (active) | < 0.01 µM (active) | < 0.01 µM (active) | < 0.01 µM (active) | < 0.01 µM (active) | < 0.01 µM (active) | < 0.01 µM (active) | 3.56 µM (inactive) |  |  | < 0.0221 µM (active) | 12.8 µM (inactive)
COc1ccc(N2C(=O)/C(=C\c3cc(OC)c(OC)c(OC)c3)S(=O)(=O)C2c2ccccc2)cc1 (stereo unspecified) | 25.8 µM (inactive) | 48.3 µM (inactive) | 24.7 µM (inactive) | 23.1 µM (inactive) | 47.6 µM (inactive) | 28.5 µM (inactive) | 12.2 µM (inactive) | 37.9 µM (inactive) | 27 µM (inactive) | 71.3 µM (inactive) | 18.5 µM (inactive) |  | 4.39 µM (inactive) | 29.2 µM (inactive) | 19.4 µM (inactive) | 17.2 µM (inactive) | 50.7 µM (inactive) | 47.4 µM (inactive) | 25.2 µM (inactive) | 41.7 µM (inactive)
O=C(NCCCl)NCc1ccccc1 | > 100 µM (inactive) | > 100 µM (inactive) | > 100 µM (inactive) | > 100 µM (inactive) | 52.5 µM (inactive) | > 100 µM (inactive) | > 100 µM (inactive) |  | > 100 µM (inactive) | > 100 µM (inactive) | > 100 µM (inactive) | > 100 µM (inactive) | > 100 µM (inactive) | > 100 µM (inactive) |  | > 100 µM (inactive) | > 100 µM (inactive) | > 100 µM (inactive) | > 100 µM (inactive) | > 100 µM (inactive)
CCSc1cc2c(cc1O)CC[C@@H]1[C@@H]2CC[C@]2(C)[C@@H](O)CC[C@@H]12 | 18.8 µM (inactive) | 11.3 µM (inactive) | > 10 µM (inactive) | 6.61 µM (inactive) | 6.68 µM (inactive) | 4.98 µM (inactive) | 8.17 µM (inactive) | 15.8 µM (inactive) |  | 24.5 µM (inactive) | 12.1 µM (inactive) | 11.7 µM (inactive) | 18.3 µM (inactive) | 8.11 µM (inactive) |  | 5.18 µM (inactive) | 14.2 µM (inactive) | 11.2 µM (inactive) | 13.3 µM (inactive) | 8.77 µM (inactive)
N#CCSc1c(-c2ccccc2)c(=O)n(-c2ccccc2)c(=S)n1-c1ccccc1 | > 100 µM (inactive) | > 100 µM (inactive) | > 100 µM (inactive) | > 100 µM (inactive) | > 100 µM (inactive) | > 100 µM (inactive) | > 100 µM (inactive) |  | > 100 µM (inactive) | > 10 µM (inactive) | > 100 µM (inactive) | > 100 µM (inactive) | > 100 µM (inactive) | > 100 µM (inactive) | > 100 µM (inactive) | > 100 µM (inactive) | > 100 µM (inactive) | > 100 µM (inactive) | > 100 µM (inactive) | 4.99 µM (inactive)
